The values that follow come from patent US8551984B2, “Aminopyrimidines as SYK inhibitors” (Merck Sharp & Dohme Corp., priority 2009, dated 2013).

A value given as a limit tells only on which side of the number the result lay.

What is called IC50 is the concentration that gives 50% inhibition. A high value points to a need for much substance.

The target in the assay is rhSYK (Homo sapiens, UniProt P43405). As to the kind of experiment: biochemical.

`Cc1cc(Nc2nccc(C(F)(F)F)n2)cc(-c2cnc(C3(O)CCC(C(=O)N4CCCC(C#N)C4)CC3)s2)c1` (stereo not drawn) [Example 119-60] showed a half-maximal inhibitory concentration (IC50) of under 100 nM.

Take `Cc1cc(Nc2nccc(C(F)(F)F)n2)cc(-c2cnc([C@]3(O)CC[C@@H](C(=O)Nc4ccc(F)cc4)CC3)s2)c1` [Example 119-62]: the IC50 was under 100 nM.

`Cc1cc(Nc2nccc(C(F)(F)F)n2)cc(-c2cnc([C@]3(O)CC[C@@H](C(=O)NCc4cccs4)CC3)s2)c1` [Example 119-63]: the concentration for half-maximal inhibition (IC50) is under 100 nM.

Consider `CC(=O)N(C)CCNC(=O)C1CCC(O)(c2ncc(-c3cc(C)cc(Nc4nccc(C(F)(F)F)n4)c3)s2)CC1` (stereo not drawn) [Example 119-68], for which the IC50 was under 100 nM.

In the case of `Cc1cc(Nc2nccc(C(F)(F)F)n2)cc(-c2cnc(C3(O)CCC(C(=O)N(C)Cc4ccccc4)CC3)s2)c1` (stereo not drawn) [Example 119-69], the concentration for half-maximal inhibition (IC50) is under 100 nM.

`Cc1cc(Nc2nccc(C(F)(F)F)n2)cc(-c2cnc(C3(O)CCC(C(=O)NCCc4ccccc4)CC3)s2)c1` (stereo not drawn) [Example 119-70] came in with an IC50 of under 100 nM.

In turn, `Cc1cc(Nc2nccc(C(F)(F)F)n2)cc(-c2cnc([C@]3(O)CC[C@@H](C(=O)NCc4cccc(O)c4)CC3)s2)c1` [Example 119-71] showed an IC50 of under 100 nM.

The compound `Cc1cc(Nc2nccc(C(F)(F)F)n2)cc(-c2cnc([C@]3(O)CC[C@@H](C(=O)Nc4ccc(CO)cc4)CC3)s2)c1` [Example 119-72] registered an IC50 of under 100 nM.

On to `Cc1cc(Nc2nccc(C(F)(F)F)n2)cc(-c2cnc([C@]3(O)CC[C@@H](C(=O)Nc4cccc(CO)c4)CC3)s2)c1` [Example 119-73], for which the IC50 was under 100 nM.

For `Cc1cc(Nc2nccc(C(F)(F)F)n2)cc(-c2cnc([C@]3(O)CC[C@@H](C(=O)NCc4ccccc4O)CC3)s2)c1` [Example 119-74], the IC50 was under 100 nM.

As for `Cc1cc(Nc2nccc(C(F)(F)F)n2)cc(-c2cnc([C@]3(O)CC[C@@H](C(=O)NCc4ccc(O)cc4)CC3)s2)c1` [Example 119-75], the IC50 was under 100 nM.

For the compound `Cc1cc(Nc2nccc(C(F)(F)F)n2)cc(-c2cnc([C@]3(O)CC[C@@H](C(=O)Nc4ccc(O)cc4O)CC3)s2)c1` [Example 119-76], the half-maximal inhibitory concentration (IC50) was under 100 nM.

Compound `Cc1cc(Nc2nccc(C(F)(F)F)n2)cc(-c2cnc(C3(O)CCC(C(=O)NCc4ccc(F)cc4)CC3)s2)c1` (stereo not drawn) [Example 119-77] showed a half-inhibitory concentration (IC50) of under 100 nM.

In turn, `CC(=O)NCCCCNC(=O)[C@H]1CC[C@](O)(c2ncc(-c3cc(C)cc(Nc4nccc(C(F)(F)F)n4)c3)s2)CC1` [Example 119-81] gave an IC50 of under 100 nM.

Compound `Cc1cc(Nc2nccc(C(F)(F)F)n2)cc(-c2cnc([C@]3(O)CC[C@@H](C(=O)Nc4ccc5[nH]ccc5c4)CC3)s2)c1` [Example 119-82] yielded a half-inhibitory concentration (IC50) of under 100 nM.

Consider `Cc1cc(Nc2nccc(C(F)(F)F)n2)cc(-c2cnc([C@]3(O)CC[C@@H](C(=O)NCCCc4ccccc4)CC3)s2)c1` [Example 119-83], for which the 50% inhibitory concentration (IC50) was under 100 nM.

As to `Cc1cc(Nc2nccc(C(F)(F)F)n2)cc(-c2cnc(C3(O)CCC(C(=O)NCCOc4ccccc4)CC3)s2)c1` (stereo not drawn) [Example 119-84], the IC50 was under 100 nM.

With `Cc1cc(Nc2nccc(C(F)(F)F)n2)cc(-c2cnc([C@]3(O)CC[C@@H](C(=O)NCc4ccc(O)c(O)c4)CC3)s2)c1` [Example 119-86], the IC50 is under 100 nM.

In the case of `Cc1cc(Nc2nccc(C(F)(F)F)n2)cc(-c2cnc([C@]3(O)CC[C@@H](C(=O)NCc4ccc(Cl)cc4)CC3)s2)c1` [Example 119-87], the 50% inhibitory concentration (IC50) was under 100 nM.

In turn, `Cc1cc(Nc2nccc(C(F)(F)F)n2)cc(-c2cnc([C@]3(O)CC[C@@H](C(=O)NCCCN4CCCC4=O)CC3)s2)c1` [Example 119-88] registered an IC50 of under 100 nM.

Regarding `Cc1cc(Nc2nccc(C(F)(F)F)n2)cc(-c2cnc(C3(O)CCC(C(=O)NC4CCC(C(N)=O)CC4)CC3)s2)c1` (stereo not drawn) [Example 119-90], the IC50 was under 100 nM.

`Cc1cc(Nc2nccc(C(F)(F)F)n2)cc(-c2cnc(C3(O)CCC(C(=O)NC4CCC(C(=O)O)CC4)CC3)s2)c1` (stereo not drawn) [Example 119-91] returned an IC50 of under 100 nM.

Take `COC(=O)N1CCN(C(=O)C2CCC(O)(c3ncc(-c4cc(C)cc(Nc5nccc(C(F)(F)F)n5)c4)s3)CC2)CC1` (stereo not drawn) [Example 119-92]: the half-inhibitory concentration (IC50) was under 100 nM.

In the case of `Cc1cc(Nc2nccc(C(F)(F)F)n2)cc(-c2cnc(C3(O)CCC(C(=O)NC4CCCc5ccccc54)CC3)s2)c1` (stereo not drawn) [Example 119-93], the 50% inhibitory concentration (IC50) was under 100 nM.

`Cc1cc(Nc2nccc(C(F)(F)F)n2)cc(-c2cnc([C@]3(O)CC[C@@H](C(=O)NCc4cn5ccccc5n4)CC3)s2)c1` [Example 119-94] displayed an IC50 of under 100 nM.

In turn, `Cc1cc(Nc2nccc(C(F)(F)F)n2)cc(-c2cnc(C3(O)CCC(C(=O)NC4c5ccccc5CC4O)CC3)s2)c1` (stereo not drawn) [Example 119-95] registered an IC50 of under 100 nM.

As to `Cc1cc(Nc2nccc(C(F)(F)F)n2)cc(-c2cnc([C@]3(O)CC[C@@H](C(=O)NCc4cccc5c4C(=O)NC5)CC3)s2)c1` [Example 119-96], the concentration for half-maximal inhibition (IC50) was under 100 nM.

In turn, `Cc1cc(Nc2nccc(C(F)(F)F)n2)cc(-c2cnc([C@]3(O)CC[C@@H](C(=O)NCc4ccc5c(c4)C(=O)NC5)CC3)s2)c1` [Example 119-97] gave an IC50 of under 100 nM.

Take `Cc1cc(Nc2nccc(C(F)(F)F)n2)cc(-c2cnc([C@]3(O)CC[C@@H](C(=O)NCc4ccc5c(c4)CNC5=O)CC3)s2)c1` [Example 119-99]: the 50% inhibitory concentration (IC50) is under 100 nM.

`Cc1cc(Nc2nccc(C(F)(F)F)n2)cc(-c2cnc([C@]3(O)CC[C@@H](C(=O)NCc4ccc(C(F)(F)F)cc4)CC3)s2)c1` [Example 119-100] came in with an IC50 of under 100 nM.

Consider `Cc1cc(Nc2nccc(C(F)(F)F)n2)cc(-c2cnc([C@]3(O)CC[C@@H](C(=O)N4CCC(Cc5ccccc5)CC4)CC3)s2)c1` [Example 119-102], for which the IC50 lay in the range of 100 to 1000 nM.

`Cc1cc(Nc2nccc(C(F)(F)F)n2)cc(-c2cnc([C@]3(O)CC[C@@H](C(=O)NCc4ccc5c(c4)NC(=O)CC5)CC3)s2)c1` [Example 119-103] gave a concentration for half-maximal inhibition (IC50) of under 100 nM.

`Cc1cc(Nc2nccc(C(F)(F)F)n2)cc(-c2cnc([C@]3(O)CC[C@@H](C(=O)NCc4ccc(-n5cc(CO)cn5)cc4)CC3)s2)c1` [Example 119-105] displayed a half-maximal inhibitory concentration (IC50) of under 100 nM.

In turn, `Cc1cc(Nc2nccc(C(F)(F)F)n2)cc(-c2cnc(C3(O)CCC(C(=O)NCc4ccc(CC5COC(=O)N5)cc4)CC3)s2)c1` (stereo not drawn) [Example 119-106] gave an IC50 of under 100 nM.

The compound `Cc1cc(Nc2nccc(C)n2)cc(-c2cnc(C3(O)CCC(C(=O)NCC#N)C(C)C3)s2)c1` (stereo not drawn) [Example 119-108] had a 50% inhibitory concentration (IC50) of under 100 nM.

Turning to `Cc1cc(Nc2nccc(C(C)(C)C)n2)cc(-c2cnc(C3(O)CCC(C(N)=O)C(C)C3)s2)c1` (stereo not drawn) [Example 119-109], the IC50 was under 100 nM.

As for `Cc1cc(Nc2nccc(OC(C)C)n2)cc(-c2cnc(C3(O)CCC(C(N)=O)C(C)C3)s2)c1` (stereo not drawn) [Example 119-110], the half-maximal inhibitory concentration (IC50) is under 100 nM.

The compound `Cc1cc(Nc2nccc(C(C)C)n2)cc(-c2cnc(C3(O)CCC(C(=O)NCC#N)C(C)C3)s2)c1` (stereo not drawn) [Example 119-113] had an IC50 of under 100 nM.

Regarding `Cc1cc(Nc2nccc(C)n2)cc(-c2cnc(C3(O)CCC(C(=O)NCc4cccnc4)C(C)C3)s2)c1` (stereo not drawn) [Example 119-114], the IC50 was under 100 nM.

With `Cc1cc(Nc2nccc(C(C)C)n2)cc(-c2cnc(C3(O)CCC(C(=O)NCc4cccnc4)C(C)C3)s2)c1` (stereo not drawn) [Example 119-115], the IC50 is under 100 nM.

`COc1ccnc(Nc2cc(C)cc(-c3cnc(C4(O)CCC(C(N)=O)C(C)(C)C4)s3)c2)n1` (stereo not drawn) [Example 119-117] came in with a half-inhibitory concentration (IC50) of under 100 nM.

For `Cc1cc(Nc2nccc(C3CC3)n2)cc(-c2cnc(C3(O)CCC(C(N)=O)C(C)(C)C3)s2)c1` (stereo not drawn) [Example 119-118], the IC50 is under 100 nM.

Consider `Cc1cc(Nc2nccc(C(C)C)n2)cc(-c2cnc(C3(O)CCC(C(N)=O)C(C)(C)C3)s2)c1` (stereo not drawn) [Example 119-119], for which the IC50 was under 100 nM.

Consider `Cc1cc(Nc2nccc(C(C)O)n2)cc(-c2cnc(C3(O)CCC(C(N)=O)C(C)(C)C3)s2)c1` (stereo not drawn) [Example 119-120], for which the IC50 is under 100 nM.

For `Cc1cc(Nc2nccc(C(C)F)n2)cc(-c2cnc(C3(O)CCC(C(N)=O)C(C)(C)C3)s2)c1` (stereo not drawn) [Example 119-122], the IC50 was under 100 nM.

Consider `Cc1cc(Nc2nccc(C(C)(C)C)n2)cc(-c2cnc(C3(O)CCC(C(N)=O)C(C)(C)C3)s2)c1` (stereo not drawn) [Example 119-125], for which the half-maximal inhibitory concentration (IC50) was under 100 nM.

The compound `Cc1cc(Nc2nccc(C(C)(C)O)n2)cc(-c2cnc(C3(O)CCC(C(N)=O)C(C)(C)C3)s2)c1` (stereo not drawn) [Example 119-127] yielded a half-maximal inhibitory concentration (IC50) of under 100 nM.

`Cc1cc(Nc2nccc(C(F)(F)F)n2)cc(-c2cnc([C@]3(O)CC[C@@H](C(N)=O)C(C)(C)C3)s2)c1` [Example 119-131] came in with an IC50 of under 100 nM.

`COc1ccnc(Nc2cc(C)cc(-c3cnc([C@@]4(O)CC[C@H](C(=O)NCC#N)C(C)(C)C4)s3)c2)n1` [Example 119-133] came in with an IC50 of under 100 nM.

Turning to `COc1ccnc(Nc2cc(C)cc(-c3cnc([C@@]4(O)CC[C@H](C(=O)NCc5cccnc5)C(C)(C)C4)s3)c2)n1` [Example 119-134], the IC50 was under 100 nM.

`Cc1cc(Nc2nccc(C)n2)cc(-c2cnc([C@@]3(O)CC[C@H](C(=O)NCCCN4CCCC4=O)C(C)(C)C3)s2)c1` [Example 119-135] showed an IC50 of under 100 nM.

`Cc1cc(Nc2nccc(C(F)(F)F)n2)cc(-c2cnc([C@@]3(O)CC[C@H](C(=O)Nc4cccnc4)C(C)(C)C3)s2)c1` [Example 119-136] gave an IC50 of under 100 nM.

Take `Cc1cc(Nc2nccc(C(F)(F)F)n2)cc(-c2cnc([C@]3(O)CC[C@@H](C(=O)N4CCc5cc(O)c(O)cc5C4)CC3)s2)c1` [Example 119-138]: the IC50 was under 100 nM.

Regarding `COc1cccc(N2CCN(C(=O)C3CCC(O)(c4ncc(-c5cc(C)cc(Nc6nccc(C(F)(F)F)n6)c5)s4)CC3)CC2)c1` (stereo not drawn) [Example 119-139], the concentration for half-maximal inhibition (IC50) was under 100 nM.

For `COCc1cc(Nc2nccc(C(F)(F)F)n2)cc(-c2cnc(C3(O)CCC(C(N)=O)C(C)C3)s2)c1` (stereo not drawn) [Example 119-142], the IC50 is under 100 nM.

Compound `COCc1cc(Nc2nccc(C(F)(F)F)n2)cc(-c2cnc([C@@]3(O)CC[C@H](C(N)=O)C(C)(C)C3)s2)c1` [Example 119-143] returned an IC50 of under 100 nM.

Regarding `CC1(C)C[C@@](O)(c2ncc(-c3cc(Cl)cc(Nc4nccc(C(F)(F)F)n4)c3)s2)CC[C@@H]1C(N)=O` [Example 119-144], the IC50 was under 100 nM.
